Tests used:
[1] = molecular target: Activin receptor type-2A (Homo sapiens) (UniProt P27037); assay: Selectivity interaction (LanthaScreen Eu Kinase Binding Assay) EUB0001632a ACVR2A; details: at 10 µM
[2] = molecular target: T1, Mitogen-activated protein kinase kinase kinase 19 (Homo sapiens) (UniProt Q56UN5); details: at 10 µM
T1 sequence (whole entry): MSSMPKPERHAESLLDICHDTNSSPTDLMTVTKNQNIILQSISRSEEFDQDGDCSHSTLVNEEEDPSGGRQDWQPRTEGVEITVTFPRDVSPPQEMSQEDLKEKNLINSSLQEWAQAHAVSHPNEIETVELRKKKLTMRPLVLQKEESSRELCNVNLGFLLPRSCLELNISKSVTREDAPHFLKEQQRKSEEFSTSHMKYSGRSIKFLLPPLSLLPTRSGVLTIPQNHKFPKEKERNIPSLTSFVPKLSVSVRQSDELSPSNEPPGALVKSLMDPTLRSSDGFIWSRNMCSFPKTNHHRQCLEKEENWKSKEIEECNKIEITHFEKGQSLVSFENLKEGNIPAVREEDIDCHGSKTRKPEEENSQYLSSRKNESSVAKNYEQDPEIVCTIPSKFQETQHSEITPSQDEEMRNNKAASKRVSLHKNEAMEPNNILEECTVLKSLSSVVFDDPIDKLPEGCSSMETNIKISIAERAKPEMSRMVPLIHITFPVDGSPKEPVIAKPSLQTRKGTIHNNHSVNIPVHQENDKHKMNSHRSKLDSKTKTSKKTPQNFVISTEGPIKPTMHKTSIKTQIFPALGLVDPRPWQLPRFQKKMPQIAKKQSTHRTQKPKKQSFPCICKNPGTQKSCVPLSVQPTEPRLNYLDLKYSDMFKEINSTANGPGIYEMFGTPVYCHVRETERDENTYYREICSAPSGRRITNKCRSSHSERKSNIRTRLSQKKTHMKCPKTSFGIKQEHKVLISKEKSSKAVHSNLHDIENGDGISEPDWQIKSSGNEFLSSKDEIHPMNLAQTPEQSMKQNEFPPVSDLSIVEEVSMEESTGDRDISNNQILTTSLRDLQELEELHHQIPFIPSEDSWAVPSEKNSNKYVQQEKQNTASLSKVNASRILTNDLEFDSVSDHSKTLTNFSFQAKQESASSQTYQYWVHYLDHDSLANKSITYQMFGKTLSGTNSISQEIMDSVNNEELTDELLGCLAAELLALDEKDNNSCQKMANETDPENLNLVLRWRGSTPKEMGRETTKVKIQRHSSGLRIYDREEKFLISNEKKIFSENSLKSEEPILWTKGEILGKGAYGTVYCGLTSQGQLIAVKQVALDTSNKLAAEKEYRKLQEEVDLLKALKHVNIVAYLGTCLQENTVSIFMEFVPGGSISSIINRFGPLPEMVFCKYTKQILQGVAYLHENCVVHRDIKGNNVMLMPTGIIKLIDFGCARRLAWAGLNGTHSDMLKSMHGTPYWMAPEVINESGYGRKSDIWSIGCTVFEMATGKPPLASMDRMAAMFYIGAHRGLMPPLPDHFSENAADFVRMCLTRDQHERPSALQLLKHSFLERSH

[3] = molecular target: LIM domain kinase 1 (Homo sapiens) (UniProt P53667); assay: Selectivity interaction (KinomeScan (DiscoverX)) EUB0001619a LIMK1; details: at 1 µM
LIM domain kinase 1 (Homo sapiens), sequence (P53667 whole entry, looked up, the tested form may be a part): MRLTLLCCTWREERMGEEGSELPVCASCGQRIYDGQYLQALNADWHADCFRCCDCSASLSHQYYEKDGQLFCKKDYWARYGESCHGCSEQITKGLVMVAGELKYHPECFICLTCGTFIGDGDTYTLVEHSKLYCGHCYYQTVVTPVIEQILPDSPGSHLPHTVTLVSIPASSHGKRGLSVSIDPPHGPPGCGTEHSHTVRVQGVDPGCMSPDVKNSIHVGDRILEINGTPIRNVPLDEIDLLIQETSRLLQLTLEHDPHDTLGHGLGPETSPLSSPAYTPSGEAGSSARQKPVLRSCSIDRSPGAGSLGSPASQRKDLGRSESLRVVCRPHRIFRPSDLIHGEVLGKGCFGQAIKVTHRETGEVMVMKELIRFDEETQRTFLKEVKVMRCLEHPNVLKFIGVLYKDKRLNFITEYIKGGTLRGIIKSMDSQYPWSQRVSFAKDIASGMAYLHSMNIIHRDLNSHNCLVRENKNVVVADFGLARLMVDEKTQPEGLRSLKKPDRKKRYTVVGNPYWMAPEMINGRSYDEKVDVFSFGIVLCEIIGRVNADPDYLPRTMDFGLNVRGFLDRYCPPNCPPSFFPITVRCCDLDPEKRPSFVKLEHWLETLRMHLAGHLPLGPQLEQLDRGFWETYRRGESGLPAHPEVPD

[4] = molecular target: Interleukin-1 receptor-associated kinase 1 (Homo sapiens) (UniProt P51617); assay: Selectivity interaction (KinomeScan (DiscoverX)) EUB0000618a IRAK1; details: at 10 µM
Interleukin-1 receptor-associated kinase 1 (Homo sapiens), sequence (P51617 whole entry, looked up): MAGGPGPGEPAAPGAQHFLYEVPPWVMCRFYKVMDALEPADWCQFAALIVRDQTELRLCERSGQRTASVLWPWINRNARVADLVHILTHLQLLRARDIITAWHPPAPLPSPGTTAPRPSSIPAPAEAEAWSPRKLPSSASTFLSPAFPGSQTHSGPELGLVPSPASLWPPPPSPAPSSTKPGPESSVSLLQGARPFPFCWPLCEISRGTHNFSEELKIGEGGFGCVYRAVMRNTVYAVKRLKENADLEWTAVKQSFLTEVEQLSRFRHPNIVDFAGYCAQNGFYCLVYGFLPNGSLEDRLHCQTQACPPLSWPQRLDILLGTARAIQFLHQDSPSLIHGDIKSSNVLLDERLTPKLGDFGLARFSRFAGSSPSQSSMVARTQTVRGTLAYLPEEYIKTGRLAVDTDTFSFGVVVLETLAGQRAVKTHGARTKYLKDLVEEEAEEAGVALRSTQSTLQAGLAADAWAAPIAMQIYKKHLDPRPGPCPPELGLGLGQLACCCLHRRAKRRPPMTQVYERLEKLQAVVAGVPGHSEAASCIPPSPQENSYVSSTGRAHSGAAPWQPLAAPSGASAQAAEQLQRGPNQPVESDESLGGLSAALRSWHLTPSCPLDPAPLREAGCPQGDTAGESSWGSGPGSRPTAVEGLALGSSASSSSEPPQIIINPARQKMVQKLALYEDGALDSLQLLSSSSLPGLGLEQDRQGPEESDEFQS

[5] = molecular target: Glycogen synthase kinase-3 beta (Homo sapiens, UniProt P49841); assay: Selectivity interaction (KinomeScan (DiscoverX)) EUB0000618a GSK3B; details: at 10 µM
Glycogen synthase kinase-3 beta, sequence (P49841 whole entry, looked up): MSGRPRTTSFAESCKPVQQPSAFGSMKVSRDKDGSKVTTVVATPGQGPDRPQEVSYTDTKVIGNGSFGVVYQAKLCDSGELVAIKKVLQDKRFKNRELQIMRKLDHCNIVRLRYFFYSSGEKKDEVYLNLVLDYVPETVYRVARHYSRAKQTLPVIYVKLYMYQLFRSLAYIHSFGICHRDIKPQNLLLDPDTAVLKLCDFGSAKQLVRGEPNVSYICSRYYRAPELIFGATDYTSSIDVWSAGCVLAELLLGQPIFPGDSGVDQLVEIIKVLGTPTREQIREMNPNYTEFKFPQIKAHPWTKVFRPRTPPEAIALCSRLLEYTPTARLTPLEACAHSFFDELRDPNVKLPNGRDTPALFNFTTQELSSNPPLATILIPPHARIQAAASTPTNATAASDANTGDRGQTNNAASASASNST

[6] = molecular target: T2, Cyclin-G-associated kinase (Homo sapiens) (UniProt O14976); assay: Selectivity interaction (ActivX KiNativ screen (kinase selectivity in THP-1 cell lysates)) EUB0000639a GAK; format: subcellular; details: lysate
T2 sequence (whole entry): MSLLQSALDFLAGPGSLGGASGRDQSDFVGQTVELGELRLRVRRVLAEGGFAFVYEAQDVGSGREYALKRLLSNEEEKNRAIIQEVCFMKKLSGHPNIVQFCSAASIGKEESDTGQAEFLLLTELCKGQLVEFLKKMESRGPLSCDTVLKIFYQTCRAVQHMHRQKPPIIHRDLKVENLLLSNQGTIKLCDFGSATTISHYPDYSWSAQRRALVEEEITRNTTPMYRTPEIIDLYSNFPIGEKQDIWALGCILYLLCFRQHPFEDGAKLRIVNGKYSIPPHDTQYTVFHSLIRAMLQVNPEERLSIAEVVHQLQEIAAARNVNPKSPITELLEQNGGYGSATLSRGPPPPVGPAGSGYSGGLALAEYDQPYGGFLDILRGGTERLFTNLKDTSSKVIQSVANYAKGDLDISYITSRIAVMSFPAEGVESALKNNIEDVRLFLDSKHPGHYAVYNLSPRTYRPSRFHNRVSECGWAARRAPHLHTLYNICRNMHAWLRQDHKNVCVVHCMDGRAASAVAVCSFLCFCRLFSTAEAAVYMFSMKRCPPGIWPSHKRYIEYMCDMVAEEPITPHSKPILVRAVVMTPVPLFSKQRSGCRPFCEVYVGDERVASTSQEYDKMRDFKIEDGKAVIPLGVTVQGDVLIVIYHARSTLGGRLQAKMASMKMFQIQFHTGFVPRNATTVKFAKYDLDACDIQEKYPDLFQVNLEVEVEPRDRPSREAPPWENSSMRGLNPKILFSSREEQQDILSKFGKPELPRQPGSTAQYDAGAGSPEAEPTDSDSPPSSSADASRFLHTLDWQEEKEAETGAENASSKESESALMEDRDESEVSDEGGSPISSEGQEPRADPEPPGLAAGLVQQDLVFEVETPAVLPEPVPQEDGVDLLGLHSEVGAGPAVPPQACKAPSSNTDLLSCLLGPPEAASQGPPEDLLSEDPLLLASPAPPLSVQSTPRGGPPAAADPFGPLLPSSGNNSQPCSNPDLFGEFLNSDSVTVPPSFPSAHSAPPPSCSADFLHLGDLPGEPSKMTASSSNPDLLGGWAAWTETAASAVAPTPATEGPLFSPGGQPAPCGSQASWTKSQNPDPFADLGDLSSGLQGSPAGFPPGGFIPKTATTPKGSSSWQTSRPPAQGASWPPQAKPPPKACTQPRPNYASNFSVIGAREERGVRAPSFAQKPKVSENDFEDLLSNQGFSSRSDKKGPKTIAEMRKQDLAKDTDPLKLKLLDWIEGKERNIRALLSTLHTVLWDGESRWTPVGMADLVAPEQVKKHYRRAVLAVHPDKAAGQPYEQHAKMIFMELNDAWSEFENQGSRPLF

[7] = molecular target: Serine/threonine-protein kinase PLK3 (Homo sapiens, UniProt Q9H4B4); assay: Selectivity interaction (Ambit KINOMEscan and KiNATiv profiling in Jurkat cells) EUB0000090b PLK3; format: cell-based; details: at 1 µM
Serine/threonine-protein kinase PLK3, sequence (Q9H4B4 whole entry, looked up): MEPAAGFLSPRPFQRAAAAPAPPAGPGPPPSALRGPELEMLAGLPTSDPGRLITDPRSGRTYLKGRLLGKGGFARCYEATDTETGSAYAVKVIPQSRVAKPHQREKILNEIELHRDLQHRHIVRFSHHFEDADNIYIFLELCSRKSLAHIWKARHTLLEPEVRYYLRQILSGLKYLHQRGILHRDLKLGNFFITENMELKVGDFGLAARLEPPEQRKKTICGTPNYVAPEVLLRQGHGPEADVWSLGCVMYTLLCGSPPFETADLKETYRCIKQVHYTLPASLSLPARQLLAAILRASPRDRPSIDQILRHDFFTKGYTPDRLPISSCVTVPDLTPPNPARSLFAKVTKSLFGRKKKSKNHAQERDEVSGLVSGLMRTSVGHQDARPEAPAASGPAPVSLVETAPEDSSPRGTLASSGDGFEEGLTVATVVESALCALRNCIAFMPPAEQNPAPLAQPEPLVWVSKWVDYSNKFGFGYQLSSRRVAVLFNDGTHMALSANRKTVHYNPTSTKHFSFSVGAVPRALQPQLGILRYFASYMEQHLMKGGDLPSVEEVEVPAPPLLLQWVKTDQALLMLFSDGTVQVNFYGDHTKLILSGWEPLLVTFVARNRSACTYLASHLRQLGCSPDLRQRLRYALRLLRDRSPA

Activin receptor type-2A (Homo sapiens), sequence (P27037 whole entry): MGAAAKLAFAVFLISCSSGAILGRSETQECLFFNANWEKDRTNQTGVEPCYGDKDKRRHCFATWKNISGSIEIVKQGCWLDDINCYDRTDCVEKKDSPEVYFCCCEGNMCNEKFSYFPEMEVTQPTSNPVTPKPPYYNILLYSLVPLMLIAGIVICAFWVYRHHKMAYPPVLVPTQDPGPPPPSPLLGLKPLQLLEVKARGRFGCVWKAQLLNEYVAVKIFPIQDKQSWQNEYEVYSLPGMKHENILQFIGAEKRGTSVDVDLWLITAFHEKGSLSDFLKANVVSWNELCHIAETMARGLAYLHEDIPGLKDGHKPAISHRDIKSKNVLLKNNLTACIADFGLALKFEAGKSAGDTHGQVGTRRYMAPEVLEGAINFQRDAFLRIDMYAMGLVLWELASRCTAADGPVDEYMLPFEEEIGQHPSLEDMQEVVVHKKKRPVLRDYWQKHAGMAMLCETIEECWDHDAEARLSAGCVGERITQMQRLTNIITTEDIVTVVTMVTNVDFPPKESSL

Cn1cc(-n2cnc3c(NCc4nc5cc(Cl)c(Cl)cc5[nH]4)nc(N4CCOCC4)nc32)cn1
% of inhibition [1]: -39.5%

Cc1cc([C@@H](C)Nc2ccccc2C(=O)O)c2nc(N3CCOCC3)cc(=O)n2c1 [AZD-6482]
% of control [2]: 100%

N#Cc1cccc(-c2c[nH]c3ncnc(N4CCOCC4)c23)c1
% of control [3]: 93%

O[C@H]1CC[C@H](Nc2ncc3nc(Nc4c(F)cc(F)cc4F)n([C@H]4CCOC4)c3n2)CC1
% of control [4]: 38%
% of control [5]: 95%

CC[C@@H]1[C@H](F)C(=O)N[C@@H]1COc1nccc2cc(C(N)=O)c(OC)cc12 [ZIMLOVISERTIB]
% of inhibition ([6]; at 0.01 µM): 16.2%
% of inhibition ([6]; at 0.04 µM): 3.7%
% of inhibition ([6]; at 0.2 µM): -10%
% of inhibition ([6]; at 1 µM): 15.7%
% of inhibition ([6]; at 5 µM): 63.1%

CN(C)C/C=C/C(=O)Nc1ccc(C(=O)N2CCCC(Nc3ncc(Cl)c(-c4c[nH]c5ccccc45)n3)C2)cc1 (stereo unspecified)
% of control [7]: 86%

From ChEMBL document CHEMBL5465560, “Selectivity Literature for EUbOPEN Chemogenomic Library” (2024)
